Among the data in PubChem BioAssay AID588668 (The Scripps Research Institute Molecular Screening Center, 2011) are phospho-ERK1/2 inhibition (% vs DMSO), hits give high values values, retold here.

This test deals with Mitogen-activated protein kinase 1 (Homo sapiens) (UniProt P28482). Nature of the test: phospho-ERK1/2 level reduction in colorectal cells, late-stage follow-up, counter-screen for KLF5 inhibitor project, SW620 cells, chemiluminescent western blot, powder samples (AID 588668). To be noted: phospho-ERK1/2 western blot, 24 h, at 10 µM. On the technique in general: Counterscreens check selectivity or assay interference.
Sequence of Mitogen-activated protein kinase 1 (Homo sapiens) (P28482 whole entry, looked up): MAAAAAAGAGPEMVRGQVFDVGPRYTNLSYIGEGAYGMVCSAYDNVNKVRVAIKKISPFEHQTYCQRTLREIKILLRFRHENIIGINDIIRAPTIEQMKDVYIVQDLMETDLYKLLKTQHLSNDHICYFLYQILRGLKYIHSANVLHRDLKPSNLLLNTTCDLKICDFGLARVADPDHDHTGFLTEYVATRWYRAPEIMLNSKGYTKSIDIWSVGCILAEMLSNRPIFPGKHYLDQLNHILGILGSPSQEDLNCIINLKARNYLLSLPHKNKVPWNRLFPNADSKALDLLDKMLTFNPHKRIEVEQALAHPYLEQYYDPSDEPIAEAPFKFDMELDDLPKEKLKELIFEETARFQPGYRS
With `CN(C(=O)COC(=O)/C=C/c1cccc([N+](=O)[O-])c1)C1CCS(=O)(=O)C1` (stereo not drawn), the phospho-ERK1/2 inhibition (% vs DMSO), hits give high values is 35.6%.
Take `CN(C(=O)CNC(=O)/C=C/c1cccc(Cl)c1)C1CCS(=O)(=O)C1` (stereo not drawn): the phospho-ERK1/2 inhibition (% vs DMSO), hits give high values is 31.3%.
On to `CN(C(=O)CNC(=O)/C=C/c1cccc(Cl)c1)C1CCS(=O)(=O)CC1`, for which the phospho-ERK1/2 inhibition (% vs DMSO), hits give high values was 48.2%.
